In PubChem BioAssay AID292 (DTP/NCI, 2004):
“And” between values parts separate entries of the source, which are not always exact repeats. Equal values may be shown once. Toxic doses and inconclusive results are not listed.

Tested on: B6C3F1 mice, ip Sarcoma M5076, median survival T/C
Test: NCI In Vivo Anticancer Drug Screen. Data for tumor model Sarcoma M5076 (intraperitoneal) in B6C3F1 mice
Conditions: endpoint: median survival time, higher = longer survival
In short: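 Mice carrying the transplanted tumour received compound treatment. Survival was recorded, and each value is the treated-group measurement divided by that of the vehicle-dosed control group.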

[1] = dose: 25.0 mg/kg/injection, schedule: Q04DX004 (ip), vehicle: Klucel (hydroxypropylcellulose) (HPC)
[2] = dose: 50.0 mg/kg/injection, schedule: Q04DX004 (ip), vehicle: Klucel (hydroxypropylcellulose) (HPC)
[3] = dose: 100.0 mg/kg/injection, schedule: Q04DX004 (ip), vehicle: Klucel (hydroxypropylcellulose) (HPC)
[4] = dose: 25.0 mg/kg/injection, schedule: Q04DX004 (ip), vehicle: saline with Tween-80
[5] = dose: 50.0 mg/kg/injection, schedule: Q04DX004 (ip), vehicle: saline with Tween-80
[6] = dose: 100.0 mg/kg/injection, schedule: Q04DX004 (ip), vehicle: saline with Tween-80
[7] = dose: 200.0 mg/kg/injection, schedule: Q04DX004 (ip), vehicle: saline with Tween-80
[8] = dose: 6.25 mg/kg/injection, schedule: Q04DX004 (ip), vehicle: saline with Tween-80
[9] = dose: 12.5 mg/kg/injection, schedule: Q04DX004 (ip), vehicle: saline with Tween-80
[10] = dose: 200.0 mg/kg/injection, schedule: Q04DX004 (ip), vehicle: Klucel (hydroxypropylcellulose) (HPC)
[11] = dose: 400.0 mg/kg/injection, schedule: Q04DX004 (ip), vehicle: Klucel (hydroxypropylcellulose) (HPC)
[12] = dose: 75.0 mg/kg/injection, schedule: Q04DX004 (ip), vehicle: saline

SMILES: COc1cc2c(c(OC)c1OC)-c1cccc(=O)cc1C(NC(C)=O)CC2 (stereo unspecified)
- T/C (dose: 3.15 mg/kg/injection, schedule: Q04DX004 (ip), vehicle: Klucel (hydroxypropylcellulose) (HPC)): 98 % of control
- T/C (dose: 6.25 mg/kg/injection, schedule: Q04DX004 (ip), vehicle: Klucel (hydroxypropylcellulose) (HPC)): 113 % of control
- T/C (dose: 12.5 mg/kg/injection, schedule: Q04DX004 (ip), vehicle: Klucel (hydroxypropylcellulose) (HPC)): 107 % of control
- T/C [1]: 116 % of control and 117 % of control
- T/C (dose: 36.0 mg/kg/injection, schedule: Q04DX004 (ip), vehicle: Klucel (hydroxypropylcellulose) (HPC)): 114 % of control
- T/C [2]: 115 % of control
- T/C (dose: 60.0 mg/kg/injection, schedule: Q04DX004 (ip), vehicle: Klucel (hydroxypropylcellulose) (HPC)): 113 % of control
- T/C [3]: 110 % of control and 121 % of control
- T/C (dose: 166.67 mg/kg/injection, schedule: Q04DX004 (ip), vehicle: Klucel (hydroxypropylcellulose) (HPC)): 107 % of control
- T/C (dose: 277.78 mg/kg/injection, schedule: Q04DX004 (ip), vehicle: Klucel (hydroxypropylcellulose) (HPC)): 111 % of control

SMILES: COc1cc(NCc2ccc3nc(N)nc(N)c3c2C)cc(OC)c1OC (tested in a mixture with another compound)
- T/C (dose: 10.0 mg/kg/injection, schedule: Q04DX004 (ip), vehicle: water): 108 % of control
- T/C (dose: 20.0 mg/kg/injection, schedule: Q04DX004 (ip), vehicle: water): 112 % of control
- T/C (dose: 40.0 mg/kg/injection, schedule: Q04DX004 (ip), vehicle: water): 117 % of control
- T/C (dose: 80.0 mg/kg/injection, schedule: Q04DX004 (ip), vehicle: water): 115 % of control

SMILES: O=C(Nc1ccccc1)c1c(O)[nH]c(=O)[nH]c1=O
- T/C [4]: 102 % of control and 108 % of control
- T/C [5]: 98 % of control and 106 % of control and 110 % of control
- T/C [6]: 96 % of control and 111 % of control and 112 % of control
- T/C [7]: 109 % of control and 111 % of control and 119 % of control
- T/C (dose: 400.0 mg/kg/injection, schedule: Q04DX004 (ip), vehicle: saline with Tween-80): 114 % of control

SMILES: Cn1c(=S)[nH]n(CCOc2ccccc2)c1=S
- T/C (dose: 31.25 mg/kg/injection, schedule: Q04DX004 (ip), vehicle: saline with Tween-80): 105 % of control
- T/C (dose: 62.5 mg/kg/injection, schedule: Q04DX004 (ip), vehicle: saline with Tween-80): 99 % of control
- T/C (dose: 125.0 mg/kg/injection, schedule: Q04DX004 (ip), vehicle: saline with Tween-80): 101 % of control
- T/C (dose: 250.0 mg/kg/injection, schedule: Q04DX004 (ip), vehicle: saline with Tween-80): 100 % of control

SMILES: CC(C)CC(NC(=O)CF)C(=O)O (stereo unspecified)
- T/C (dose: 1.56 mg/kg/injection, schedule: Q04DX004 (ip), vehicle: saline with Tween-80): 98 % of control
- T/C (dose: 3.12 mg/kg/injection, schedule: Q04DX004 (ip), vehicle: saline with Tween-80): 102 % of control
- T/C [8]: 95 % of control
- T/C [9]: 97 % of control

SMILES: CCC1C(C#N)C(=O)NC(=O)C1C#N (stereo unspecified)
- T/C [2]: 104 % of control
- T/C [3]: 106 % of control
- T/C [10]: 107 % of control
- T/C [11]: 104 % of control
- T/C (dose: 800.0 mg/kg/injection, schedule: Q04DX004 (ip), vehicle: Klucel (hydroxypropylcellulose) (HPC)): 110 % of control

SMILES: CCOC(=O)C(C(=O)OCC)=C(N)C(Cl)(Cl)Cl
- T/C [1]: 107 % of control
- T/C [2]: 103 % of control
- T/C [3]: 101 % of control
- T/C [10]: 103 % of control
- T/C [11]: 96 % of control

SMILES: O=S(=O)(O)O
- T/C (dose: 30.0 mg/kg/injection, schedule: Q01DX009 (ip), vehicle: water): 103 % of control
- T/C (dose: 44.0 mg/kg/injection, schedule: Q01DX009 (ip), vehicle: water): 96 % of control

SMILES: CCCCCCCC(=O)[O][Hg][CH2]C1COC([CH2][Hg][O]C(=O)CCCCCCC)CO1 (stereo unspecified)
- T/C [8]: 95 % of control
- T/C [9]: 86 % of control
- T/C [4]: 86 % of control and 87 % of control
- T/C [5]: 87 % of control and 90 % of control
- T/C [6]: 87 % of control

SMILES: O=C/C(Cl)=C(/Cl)C(=O)O
- T/C [8]: 92 % of control
- T/C [9]: 104 % of control and 110 % of control
- T/C [4]: 109 % of control and 119 % of control

SMILES: O=C(Nc1ccccc1[N+](=O)[O-])C1C(=O)C(=O)N(c2ccccc2[N+](=O)[O-])C1=O (stereo unspecified)
- T/C [2]: 101 % of control
- T/C [3]: 89 % of control
- T/C [10]: 92 % of control

SMILES: COc1cc(C(C)c2cc3c(cc2OCCO)OCO3)cc(OC)c1OC (stereo unspecified)
- T/C [6]: 108 % of control
- T/C [7]: 104 % of control

SMILES: Cc1ccc2c(c1)C1(C)OC(C=CC1=O)O2 (stereo unspecified)
- T/C [1]: 96 % of control
- T/C [2]: 103 % of control

SMILES: O=[N+]([O-])c1c(O)c(CNCCCO)cc(CNCCCO)c1O
- T/C (dose: 6.25 mg/kg/injection, schedule: Q04DX004 (ip), vehicle: suspension in saline): 98 % of control
- T/C (dose: 12.5 mg/kg/injection, schedule: Q04DX004 (ip), vehicle: suspension in saline): 99 % of control
- T/C (dose: 25.0 mg/kg/injection, schedule: Q04DX004 (ip), vehicle: suspension in saline): 101 % of control
- T/C (dose: 50.0 mg/kg/injection, schedule: Q04DX004 (ip), vehicle: suspension in saline): 118 % of control

SMILES: NC(CCC(=O)NC(CS)C(=O)NCC(=O)O)C(=O)O (stereo unspecified)
- T/C [12]: 110 % of control
- T/C (dose: 150.0 mg/kg/injection, schedule: Q04DX004 (ip), vehicle: saline): 100 % of control
- T/C (dose: 300.0 mg/kg/injection, schedule: Q04DX004 (ip), vehicle: saline): 102 % of control
- T/C (dose: 600.0 mg/kg/injection, schedule: Q04DX004 (ip), vehicle: saline): 90 % of control
- T/C (dose: 1200.0 mg/kg/injection, schedule: Q04DX004 (ip), vehicle: saline): 90 % of control

SMILES: CC[C@@]1(O)C(=O)OCc2c1cc1n(c2=O)Cc2cc3c(N)cccc3nc2-1
- T/C (dose: 0.25 mg/kg/injection, schedule: Q04DX004 (ip), vehicle: saline with Tween-80): 121 % of control
- T/C (dose: 1.0 mg/kg/injection, schedule: Q04DX004 (ip), vehicle: saline with Tween-80): 164 % of control and 168 % of control
- T/C (dose: 2.0 mg/kg/injection, schedule: Q04DX004 (ip), vehicle: saline with Tween-80): 208 % of control
- T/C (dose: 4.0 mg/kg/injection, schedule: Q04DX004 (ip), vehicle: saline with Tween-80): 177 % of control

SMILES: CN(C)C(=O)SC1=C(c2c(Cl)cccc2Cl)C(=O)c2ccccc21
- T/C (dose: 37.5 mg/kg/injection, schedule: Q04DX004 (ip), vehicle: Klucel (hydroxypropylcellulose) (HPC)): 97 % of control
- T/C (dose: 75.0 mg/kg/injection, schedule: Q04DX004 (ip), vehicle: Klucel (hydroxypropylcellulose) (HPC)): 113 % of control
- T/C (dose: 150.0 mg/kg/injection, schedule: Q04DX004 (ip), vehicle: Klucel (hydroxypropylcellulose) (HPC)): 104 % of control
- T/C (dose: 300.0 mg/kg/injection, schedule: Q04DX004 (ip), vehicle: Klucel (hydroxypropylcellulose) (HPC)): 95 % of control
- T/C (dose: 1200.0 mg/kg/injection, schedule: Q04DX004 (ip), vehicle: Klucel (hydroxypropylcellulose) (HPC)): 95 % of control

SMILES: O=C(O)C(O)C(O)C1[O][Sb][O]C1C(=O)O (stereo unspecified)
- T/C (dose: 9.37 mg/kg/injection, schedule: Q04DX004 (ip), vehicle: saline): 100 % of control
- T/C (dose: 9.38 mg/kg/injection, schedule: Q04DX004 (ip), vehicle: saline): 107 % of control
- T/C (dose: 18.75 mg/kg/injection, schedule: Q04DX004 (ip), vehicle: saline): 99 % of control and 110 % of control
- T/C (dose: 37.5 mg/kg/injection, schedule: Q04DX004 (ip), vehicle: saline): 110 % of control and 114 % of control
- T/C [12]: 99 % of control and 111 % of control

SMILES: CC(=O)C(Cl)C(=O)c1c(C)[nH]n(-c2ccccc2)c1=O (stereo unspecified)
- T/C [2]: 99 % of control
- T/C [3]: 113 % of control
- T/C [10]: 92 % of control

SMILES: COc1c(O)cc2c(c1OC)-c1ccc(SC)c(=O)cc1C(NC(C)=O)CC2 (stereo unspecified)
- T/C (dose: 5.0 mg/kg/injection, schedule: Q04DX004 (ip), vehicle: Klucel (hydroxypropylcellulose) (HPC)): 154 % of control and 196 % of control
- T/C (dose: 10.0 mg/kg/injection, schedule: Q04DX004 (ip), vehicle: Klucel (hydroxypropylcellulose) (HPC)): 235 % of control and 237 % of control

SMILES: S=c1sc(-c2ccc(Cl)cc2)nn1CSc1nc2ccccc2[nH]1
- T/C (dose: 37.5 mg/kg/injection, schedule: Q04DX004 (ip), vehicle: saline with Tween-80): 105 % of control
- T/C (dose: 75.0 mg/kg/injection, schedule: Q04DX004 (ip), vehicle: saline with Tween-80): 98 % of control
- T/C (dose: 150.0 mg/kg/injection, schedule: Q04DX004 (ip), vehicle: saline with Tween-80): 96 % of control
- T/C (dose: 300.0 mg/kg/injection, schedule: Q04DX004 (ip), vehicle: saline with Tween-80): 95 % of control
